Test systems include Bacillus subtilis 168; Escherichia coli B; Pseudomonas aeruginosa; Staphylococcus aureus; Bacillus subtilis; Escherichia coli; Listeria innocua; Micrococcus luteus A270.
Test in all cases: ≥ marks a high value that may be exact or a test limit, other limits are often not marked, values filed in µg/mL are converted to µM
In assay [1] the test system is Bacillus subtilis ATCC 23857.
Assay [2] has as its system Candida albicans ATCC 10231.
The subject of assay [3] is Escherichia coli ATCC 25922.
Assay [4] deals with Candida albicans F7-39/IDE99.
In assay [5] the test system is Staphylococcus aureus ATCC 25923.
Assay [6] deals with Staphylococcus epidermidis ATCC 12228.
Assay [7] deals with Staphylococcus aureus ATCC BAA-1556.
The test system of assay [8] is Candida albicans ATCC 2002.
Assay [9] relates to Klebsiella pneumoniae ATCC 700603.
Assay [10] relates to Pseudomonas aeruginosa ATCC 9027.

Values after ≈ are worked out from the molar mass of the structure shown. Where only a bound is given, the exact number is not on record here.

What is called MIC is the least concentration at which growth counts as inhibited. In the case of `N=C(N)NCCC[C@H](NC(=O)[C@H](CCCNC(=N)N)NC(=O)[C@H](Cc1ccccc1)NC(=O)[C@H](Cc1ccccc1)NC(=O)[C@H](CCCNC(=N)N)NC(=O)[C@H](CCCNC(=N)N)NC(=O)[C@H](Cc1ccccc1)NC(=O)[C@H](Cc1ccccc1)NC(=O)[C@H](CCCNC(=N)N)NC(=O)[C@H](CCCNC(=N)N)NC(=O)[C@H](Cc1ccccc1)NC(=O)[C@H](Cc1ccccc1)NC(=O)[C@H](CCCNC(=N)N)NC(=O)[C@H](CCCNC(=N)N)NC(=O)[C@H](Cc1ccccc1)NC(=O)[C@@H](N)Cc1ccccc1)C(N)=O` [FFRRFFRRFFRRFFRR], the figures for the MIC in [1] and in assay [2] were 8.18 µM (≈ 20 µg/mL) and above 20.5 µM, respectively.
On to `CC[C@H](C)[C@H](NC(=O)CN)C(=O)N[C@H](C(=O)N[C@@H](C)C(=O)NCC(=O)N[C@H](C(=O)N[C@H](C(=O)N[C@H](C(=O)N[C@@H](CCCCN)C(=O)N[C@H](C(=O)N[C@@H](C)C(=O)N[C@@H](CCCCN)C(N)=O)[C@@H](C)CC)[C@@H](C)CC)[C@@H](C)CC)[C@@H](C)CC)[C@@H](C)CC` [GIIAGIIIKIAK], for which the figures for the MIC in assay [1] and in [3] were at least 128 µM and above 128 µM, respectively.
As to `CC[C@H](C)[C@H](NC(=O)[C@H](Cc1cnc[nH]1)NC(=O)[C@H](CCCCN)NC(=O)[C@H](CC(C)C)NC(=O)[C@H](CC(C)C)NC(=O)[C@@H](NC(=O)[C@H](CCSC)NC(=O)[C@H](Cc1c[nH]c2ccccc12)NC(=O)[C@H](CCCCN)NC(=O)CN)[C@@H](C)O)C(=O)N[C@@H](CC(C)C)C(=O)N[C@@H](CCCCN)C(N)=O` [GKWMTLLKHILK], the MIC against Bacillus subtilis 168 was 1.3 µM (≈ 1.91 µg/mL); in assay [4], 7 µM (≈ 10.3 µg/mL); against Escherichia coli B, 2.7 µM (≈ 3.96 µg/mL); in the assay with Pseudomonas aeruginosa, 38.3 µM (≈ 56.2 µg/mL); in the assay on Staphylococcus aureus, 5.3 µM (≈ 7.77 µg/mL).
`CC[C@H](C)[C@H](N)C(=O)N[C@@H](CC(C)C)C(=O)NCC(=O)N[C@H](C(=O)N[C@H](C(=O)N[C@@H](CC(C)C)C(=O)NCC(=O)N[C@@H](CC(C)C)C(=O)N[C@@H](CC(C)C)C(=O)N[C@@H](CCCCN)C(=O)N[C@@H](CC(N)=O)C(=O)N[C@@H](CC(C)C)C(N)=O)[C@@H](C)CC)[C@@H](C)O` [ILGTILGLLKNL]: the MIC in assay [1] was determined as 4 µM (≈ 5.07 µg/mL); in [3], 32 µM (≈ 40.5 µg/mL); in [5] it was 8 µM (≈ 10.1 µg/mL); in [6] it was 4 µM (≈ 5.07 µg/mL).
Consider `CC[C@H](C)[C@H](N)C(=O)N[C@@H](CC(C)C)C(=O)NCC(=O)N[C@H](C(=O)N[C@H](C(=O)N[C@@H](CC(C)C)C(=O)NCC(=O)N[C@@H](CC(C)C)C(=O)N[C@@H](CC(C)C)C(=O)N[C@@H](CCCCN)C(=O)N[C@H](C(=O)N[C@@H](CC(C)C)C(N)=O)[C@@H](C)O)[C@@H](C)CC)[C@@H](C)O` [ILGTILGLLKTL], for which the MIC in assay [1] came to 4 µM (≈ 5.01 µg/mL); in [3], 64 µM (≈ 80.2 µg/mL); in [5], 8 µM (≈ 10 µg/mL); in assay [6], 4 µM (≈ 5.01 µg/mL).
Compound `CC(C)C[C@H](NC(=O)[C@H](CC(C)C)NC(=O)[C@H](Cc1c[nH]c2ccccc12)NC(=O)[C@H](CCCCN)NC(=O)[C@H](CC(C)C)NC(=O)[C@H](CC(C)C)NC(=O)[C@H](CCCCN)NC(=O)[C@@H](N)CCCCN)C(=O)N[C@@H](CCCCN)C(N)=O` [KKLLKWLLK] returned an MIC in [7] of at least 100 µM.
Still for that read-out and setting: the figure for `CC(C)C[C@H](NC(=O)[C@H](CC(C)C)NC(=O)[C@H](CC(C)C)NC(=O)[C@H](CC(C)C)NC(=O)[C@H](CCCCN)NC(=O)[C@H](CC(C)C)NC(=O)[C@H](CC(C)C)NC(=O)[C@H](CC(C)C)NC(=O)[C@@H](N)CCCCN)C(N)=O` [KLLLKLLLL] is at least 100 µM.
Take `CC[C@H](C)[C@H](NC(=O)[C@H](C)NC(=O)[C@H](CCCN=C(N)N)NC(=O)[C@H](Cc1ccc(O)cc1)NC(=O)[C@H](CC(C)C)NC(=O)[C@H](CC(N)=O)NC(=O)[C@H](Cc1ccc(O)cc1)NC(=O)CNC(=O)[C@H](C)NC(=O)[C@@H](NC(=O)[C@@H](NC(=O)[C@@H](NC(=O)[C@H](CCCN=C(N)N)NC(=O)[C@@H](NC(=O)[C@@H](NC(=O)[C@@H](NC(=O)[C@@H]1CCCN1C(=O)[C@H](Cc1c[nH]c2ccccc12)NC(=O)[C@H](Cc1ccccc1)NC(=O)[C@H](CCCN=C(N)N)NC(=O)[C@@H](N)CCCCN)C(C)C)C(C)C)[C@@H](C)CC)[C@@H](C)O)C(C)C)C(C)C)C(=O)N[C@@H](CCCCN)C(=O)N[C@@H](CCCCN)C(=O)N[C@@H](CCCCN)C(=O)O` [KRFWPVVIRTVVAGYNLYRAIKKK]: the MIC with Bacillus subtilis is 1.21 µM (≈ 3.52 µg/mL); in assay [8] it was 0.202 µM (≈ 0.586 µg/mL); in [3], 6.45 µM (≈ 18.8 µg/mL); in [5], 1.21 µM (≈ 3.52 µg/mL).
Consider `CC[C@H](C)[C@H](NC(=O)[C@H](Cc1c[nH]c2ccccc12)NC(=O)[C@H](CCCN=C(N)N)NC(=O)[C@H](CCCN=C(N)N)NC(=O)[C@H](Cc1c[nH]c2ccccc12)NC(=O)[C@@H](N)CCCCN)C(=O)N[C@@H](CCCN=C(N)N)C(=O)N[C@@H](Cc1c[nH]c2ccccc12)C(N)=O` [KWRRWIRW], for which, in assay [7], the MIC was 12.5 µM (≈ 16.1 µg/mL).
In assay [7], `CC(C)C[C@H](NC(=O)[C@H](CCCCN)NC(=O)[C@H](CCCCN)NC(=O)[C@H](CC(C)C)NC(=O)[C@H](CC(C)C)NC(=O)[C@H](CC(C)C)NC(=O)[C@H](CC(C)C)NC(=O)[C@H](CC(C)C)NC(=O)[C@@H](N)CC(C)C)C(N)=O` [LLLLLLKKL] gave an MIC of at least 100 µM.
Still for that read-out and setting: the result for `CC(C)C[C@H](NC(=O)[C@H](CC(C)C)NC(=O)[C@H](CCCCN)NC(=O)[C@H](CC(C)C)NC(=O)[C@H](CC(C)C)NC(=O)[C@H](CC(C)C)NC(=O)[C@H](CC(C)C)NC(=O)[C@H](CC(C)C)NC(=O)[C@@H](N)CC(C)C)C(N)=O` [LLLLLLKLL] reads at least 100 µM.
For `CC[C@H](C)[C@H](NC(=O)[C@H](CCCCN)NC(=O)[C@H](CCCCN)NC(=O)[C@H](C)NC(=O)[C@@H](NC(=O)[C@H](C)NC(=O)[C@H](CC(C)C)NC(=O)[C@H](CC(C)C)NC(=O)[C@H](C)NC(=O)[C@H](CCCCN)NC(=O)[C@H](CC(C)C)NC(=O)[C@H](CC(N)=O)NC(=O)[C@@H](N)CC(C)C)C(C)C)C(N)=O` [LNLKALLAVAKKI], the MIC in [1] is 16 µM (≈ 22.3 µg/mL); in [3], 16 µM (≈ 22.3 µg/mL); in [9] it was 64 µM (≈ 89.2 µg/mL); in assay [10], 32 µM (≈ 44.6 µg/mL); in [5] it was 64 µM (≈ 89.2 µg/mL).
As to `CC(C)C[C@H](NC(=O)[C@H](Cc1c[nH]c2ccccc12)NC(=O)[C@H](CCCN=C(N)N)NC(=O)[C@H](CC(C)C)NC(=O)[C@H](Cc1c[nH]c2ccccc12)NC(=O)[C@H](Cc1c[nH]c2ccccc12)NC(=O)[C@H](CC(C)C)NC(=O)[C@H](Cc1c[nH]c2ccccc12)NC(=O)[C@@H](N)CC(C)C)C(N)=O` [LWLWWLRWL], the MIC in [7] was determined as 3.12 µM (≈ 4.28 µg/mL).
In the case of `CC(C)C[C@H](NC(=O)[C@H](Cc1c[nH]c2ccccc12)NC(=O)[C@H](CCCN=C(N)N)NC(=O)[C@H](CC(C)C)NC(=O)[C@H](Cc1c[nH]c2ccccc12)NC(=O)[C@H](Cc1c[nH]c2ccccc12)NC(=O)[C@@H](N)CC(C)C)C(N)=O` [LWWLRWL], the MIC in [7] was found to be 12.5 µM (≈ 13.4 µg/mL).
For `CC[C@H](C)[C@H](NC(=O)[C@H](CCCCN)NC(=O)[C@H](CCCCN)NC(=O)[C@H](Cc1c[nH]c2ccccc12)NC(=O)[C@H](CC(N)=O)NC(=O)[C@@H](N)C(C)C)C(=O)N[C@@H](CC(C)C)C(=O)NCC(=O)N[C@@H](CCCCN)C(=O)N[C@H](C(=O)N[C@H](C(=O)N[C@@H](CCCCN)C(=O)N[C@H](C(=O)N[C@@H](C)C(=O)N[C@@H](CCCCN)C(N)=O)C(C)C)[C@@H](C)CC)[C@@H](C)CC` [VNWKKILGKIIKVAK], the MIC in the assay with Bacillus subtilis 168 came out at 0.7 µM (≈ 1.22 µg/mL); in assay [4], 10 µM (≈ 17.4 µg/mL); with Escherichia coli B it was 1.4 µM (≈ 2.43 µg/mL); against Pseudomonas aeruginosa, 14.4 µM (≈ 25 µg/mL); in the assay with Staphylococcus aureus, 9 µM (≈ 15.6 µg/mL).
`CC(C)C[C@H](NC(=O)[C@H](CO)NC(=O)[C@H](C)NC(=O)[C@H](Cc1cnc[nH]1)NC(=O)[C@@H](NC(=O)[C@H](C)NC(=O)[C@@H]1CCCN1C(=O)[C@@H](NC(=O)[C@H](Cc1ccccc1)NC(=O)[C@H](CC(=O)O)NC(=O)[C@H](CO)NC(=O)[C@@H]1CCCN1C(=O)[C@H](CC(C)C)NC(=O)[C@H](Cc1cnc[nH]1)NC(=O)[C@H](CO)NC(=O)[C@H](C)NC(=O)[C@H](CC(C)C)NC(=O)[C@@H](NC(=O)[C@@H](N)C(C)C)[C@@H](C)O)[C@@H](C)O)C(C)C)C(=O)N[C@@H](CC(=O)O)C(=O)N[C@@H](CCCCN)C(=O)N[C@@H](Cc1ccccc1)C(=O)O` [VTLASHLPSDFTPAVHASLDKF]: the MIC with Escherichia coli was 26 µM (≈ 61.2 µg/mL); in the assay on Listeria innocua it was at least 53 µM; in the assay on Micrococcus luteus A270, at least 53 µM.
Compound `CC(C)C[C@H](NC(=O)[C@H](Cc1c[nH]c2ccccc12)NC(=O)[C@H](CCCN=C(N)N)NC(=O)[C@H](CC(C)C)NC(=O)[C@H](Cc1c[nH]c2ccccc12)NC(=O)[C@H](Cc1c[nH]c2ccccc12)NC(=O)[C@H](CC(C)C)NC(=O)[C@@H](N)Cc1c[nH]c2ccccc12)C(N)=O` [WLWWLRWL] came in with an MIC in assay [7] of 6.25 µM (≈ 7.86 µg/mL).

For the origin of these results see DBAASP.
